Experimental data published in US20140341922A1, “Method for Overcoming Tolerance to Targeted Anti-Cancer Agent” (SUN R&DB Foundation, priority 2011, published 2014).

Columns and labels:
[1] = tested on: IGF-1R, EGFR, Src, Akt, mTOR phosphorylation; assay: Western blot of IGF-1R, EGFR, Src, Akt signaling after cixutumumab; type: cell-based, human
Description: Preparation of total cell lysates, Western blot analysis, and immunoprecipitation were performed according to methods described in our previous report (Morgillo et al., 2006).
Total cell lysates were immunoprecipitated with antibodies against integrin β3, integrin β1, or IgG. The precipitates with protein A agarose were resolved by sodium dodecyl sulfate-polyacrylamide gel electrophoresis (SDS-PAGE) and transferred to a polyvinylidene difluoride (PVDF) membrane. Western blot analysis was performed using specific Abs described as follows, and antigen-antibody complexes were visualized using enhanced chemiluminescence plus kits (Amersham Biosciences, Piscataway, N.J.).
The present inventors investigated the mechanisms involved in the resistance to cixutumumab treatment in HNSCC and NSCLC cells. cixutumumab resistant (LN686, FADU, 226B, 226Br, H596, and H460) or -sensitivity (UMSCC38, OSC19, H1299, and A549m) lines grown in TCP, PCP, UAP, or soft agar were untreated or treated with 25 μg/ml of cixutumumab for 6 h, and then were stimulated with IGF-1 for 30 min. Expression of several proteins were analyzed by Western blot analysis.
Cixutumumab-resistant (LN686, FADU, 226B, 226Br, H596, and H460) or -sensitive (UMSCC38, OSC19, H1299, and A549m) cell lines grown in PCP were untreated or treated with 25 μg/ml of cixutumumab for 7 days, and then were stimulated with 10% FBS for 30 min. Expression of several proteins were analyzed by western blot analysis.
Because cross-talk between EGFR and IGF-1R signalings have been proposed as a major mechanism of a resistance to TKIs of IGF-1R and EGFR (Buck et al., 2008; Morgillo et al., 2006), the present inventors next examined whether cixutumumab treatment induces activation of EGFR and Akt phosphorylation. After cixutumumab-resistant (LN686, FADU, 226B, 226Br, H596, and H460) or -sensitive (UMSCC38, OSC19, H1299, and A549m) cell lines grown in PCPs were treated with cixutumumab, 10% FBS was treated for 30 min. Several phosphorylated proteins and actin were analyzed by western blot analysis. In addition, densitometric analysis was performed to quantify the expression of the proteins for comparisons between cixutumumab-treated and control cells treated with vehicle.
The LN686 cells grown in PCP were treated with cixutumumab (25 μg/ml) for indicated times prior to stimulation with 10% FBS (FIGS. 14 and 15) or IGF-1 (100 ng/ml) (FIGS. 16 and 17) in the presence or absence of anti-human IGF-1 neutralizing monoclonal antibody (αIGF-1) (FIGS. 15 and 16) for indicated times (FIG. 16) or for 30 min (FIGS. 14, 15, and 17). Immunoprecipitation with whole proteins or integrin β3 antibodies was performed on the presented proteins, and expression of the proteins was analyzed by western blot analysis.
In addition, LN686 cells grown in PCP were treated with cixutumumab (25 μg/ml) for 7 days in the absence of FBS. The results obtained by analyzing p-IGF-1R (Y1131), IGF-1R, p-Src (Y416), Src, p-EGFR (Y845), p-EGFR (Y1068), EGFR, p-Akt (S473), and Akt using western blot analysis. LN686 cells stimulated with 10% serum for 30 min were included as a control.

[2] = tested on: Src and FAK phosphorylation; assay: Fluorescent immunostaining of pSrc and pFAK; type: cell-based, human
Description: The present inventors reconfirmed the western blot analysis results in which Src and FAK phosphorylation was increased due to cixutumumab in the presence of IGF-1 by fluorescent immunostaining. Cultured LN686 cells in UAPs with cixutumumab alone or in combination with IGF-1 or an integrin β3 neutralizing antibody, treated with IGF-1 to fix, and then Src and FAK phosphorylation was confirmed. […] Such an action of the cixutumumab was abolished by the IGF-1 or integrin β3 neutralizing antibody, and therefore it was reconfirmed that the action of cixutumumab for inducing the Src and FAK phosphorylation was mediated by integrin β3 in the presence of IGF-1.
According to the Previous study, a modified integrin β3 expression vector was prepared by substituting an amino acid sequence (CYDMKTTC, residues 177-184) of the integrin β3 essential for the IGF-1 bond with an amino acid sequence (CTSEQNC, residues 187-193) of integrin β1 at a corresponding position. An empty vector or a modified integrin β3 expression vector was transfected into FADU cells. These cells were plated, and cultured along with cixutumumab (25 μg/ml) alone or in combination with IGF-1 or an integrin β3 neutralizing antibody for 4 h. After the culture, IGF-1 […] was treated for 1 hour, and the cells were recovered, washed with PBS, and fixed with 10% formalin for 2 h. […]

## cixutumumab: humanized mAb targeting IGF-1R, provided by ImClone Systems
[1]; 25 μg/mL for 6 h, LN686 and OSC19 cells in TCPs, PCPs, UAPs, soft agar
  IGF-1-induced IGF-1R and Akt phosphorylation, and total IGF-1R expression: effectively suppressed
[1]; LN686 (cixutumumab-resistant)
  phosphorylation of Akt and downstream effectors mTOR, p70S6K, S6: not to inhibit or to even increase
[1]; LN686 in PCP, 25 μg/ml, no change in IGF-1R level
  time IGF-1R remained dephosphorylated: 3 h
[1]; LN686 in PCP, 30 min pretreatment, 10% FBS stimulation
  levels of p-IGF-1R, p-EGFR (Y845), p-Src (Y416), and p-Akt (S473): decreased
[1]; LN686 in PCP, one hour treatment, 10% FBS stimulation
  phosphorylation of Src, FAK, EGFR (Y845), Akt, mTOR: rapidly rephosphorylated
[1]; OSC19 (cixutumumab-sensitive)
  phosphorylation of Akt and downstream effectors mTOR, p70S6K, S6: inhibited
[1]; cixutumumab alone, absence of IGF-1 stimulation, LN686
  EGFR, Src, or Akt phosphorylation: failed to induce
[1]; cixutumumab-resistant lines in PCPs, 7 days, 10% FBS 30 min
  phosphorylation of EGFR at Src-specific site (Y845) and of Src (Y416): increased
[1]; drug-resistant lines in PCPs, 7 days, 10% FBS 30 min
  phosphorylation of EGFR at Tyr1068: increased
[2]; LN686 cells adhered to ECM-coated coverslip
  IGF-1-induced Src and FAK phosphorylation in cell membrane: did not suppress or somewhat increased
[2]; LN686 cells in UAPs, in the presence of IGF-1
  Src and FAK phosphorylation (immunostaining): enhanced phosphorylation
